Experimental data as given in ChEMBL document CHEMBL4334511, “Trivirensols: Selectively Bacteriostatic Sesquiterpene Trimers from the Australian Termite Nest-Derived Fungus Trichoderma virens CMB-TN16” (J Nat Prod, 2019).
pIC50: −log10 of the molar value. Active and inactive are the calls of the source. The calls are words filed in the database; no cut-off is given here.

Tests used:
[1] = test system: Escherichia coli; experiment: Antibacterial activity against Escherichia coli KUW-kw-AmH-11 assessed as reduction in […] growth at 0.01 to 30 uM incubated for 24 hrs by spectrophotometry based broth microdilution assay; format: functional, organism-based
[2] = test system: Candida albicans; experiment: Antifungal activity against Candida albicans ATCC 90028 assessed as reduction in fungal growth at 0.01 to 30 uM incubated for 24 hrs by spectrophotometry based broth microdilution assay; format: functional, organism-based
[3] = Prodrug conversion in vancomycin-resistant Enterococcus faecalis AUS-RBWH-VRE-01 assessed as hydrolysis product divirensol B formation at 30 uM incubated for 24 hrs by UHPLC-DAD-ESIMS analysis; format: ADME
[4] = test system: Streptococcus pyogenes; experiment: Antibacterial activity against Streptococcus pyogenes ATCC 12344 assessed as reduction in […] growth at 0.01 to 30 uM incubated for 24 hrs by spectrophotometry based broth microdilution assay; format: functional, organism-based
[5] = Prodrug conversion in vancomycin-resistant Enterococcus faecalis AUS-RBWH-VRE-01 assessed as hydrolysis product butenolide formation at 30 uM incubated for 24 hrs by UHPLC-DAD-ESIMS analysis; format: ADME
[6] = test system: Pseudomonas aeruginosa; experiment: Antibacterial activity against IMP producing Pseudomonas aeruginosa UAE-DBI-ZMH-91 assessed as reduction in […] growth at 0.01 to 30 uM incubated for 24 hrs by spectrophotometry based broth microdilution assay; format: functional, organism-based
[7] = test system: Staphylococcus aureus; experiment: Antibacterial activity against Staphylococcus aureus ATCC 9144 assessed as reduction in […] growth at 0.01 to 30 uM incubated for 24 hrs by spectrophotometry based broth microdilution assay; format: functional, organism-based
[8] = test system: Klebsiella pneumoniae; experiment: Antibacterial activity against OXA-48-producing Klebsiella pneumoniae SA-Rd-KAMC-014 assessed as reduction in […] growth at 0.01 to 30 uM incubated for 24 hrs by spectrophotometry based broth microdilution assay; format: functional, organism-based
[9] = test system: NCI-H460; experiment: Cytotoxicity against human NCI-H460 cells assessed as reduction in cell viability upto 30 uM incubated for 48 hrs by MTT assay; format: cell-based; details: nci-h460, 48 h
[10] = test system: Staphylococcus aureus; experiment: Antibacterial activity against methicillin-resistant Staphylococcus aureus AUS-RBWH-MRSA-02 assessed as reduction in […] growth at 0.01 to 30 uM incubated for 24 hrs by spectrophotometry based broth microdilution assay; format: functional, organism-based
[11] = test system: Pseudomonas aeruginosa; experiment: Antibacterial activity against VIM producing Pseudomonas aeruginosa SA-EP-KFUH-40 assessed as reduction in […] growth at 0.01 to 30 uM incubated for 24 hrs by spectrophotometry based broth microdilution assay; format: functional, organism-based
[12] = test system: Bacillus subtilis; experiment: Antibacterial activity against Bacillus subtilis ATCC 6633 assessed as reduction in […] growth at 0.01 to 30 uM incubated for 24 hrs by spectrophotometry based broth microdilution assay; format: functional, organism-based
[13] = test system: Escherichia coli; experiment: Antibacterial activity against Escherichia coli ATCC 11775 assessed as reduction in […] growth at 0.01 to 30 uM incubated for 24 hrs by spectrophotometry based broth microdilution assay; format: functional, organism-based
[14] = test system: Klebsiella pneumoniae; experiment: Antibacterial activity against NDM-producing Klebsiella pneumoniae SA-Rd-KAMC-037 assessed as reduction in […] growth at 0.01 to 30 uM incubated for 24 hrs by spectrophotometry based broth microdilution assay; format: functional, organism-based
[15] = test system: Acinetobacter baumannii; experiment: Antibacterial activity against OXA-23-producing Acinetobacter baumannii SA-Rd-KAMC-083 assessed as reduction in […] growth at 0.01 to 30 uM incubated for 24 hrs by spectrophotometry based broth microdilution assay; format: functional, organism-based
[16] = test system: Enterococcus faecalis; experiment: Antibacterial activity against vancomycin-resistant Enterococcus faecalis AUS-RBWH-VRE-01 assessed as fold reduction in growth by measuring colony formation unit at 30 uM incubated for 24 hrs by time kill assay; format: functional
[17] = test system: SW-620; experiment: Cytotoxicity against human SW620 cells assessed as reduction in cell viability upto 30 uM incubated for 48 hrs by MTT assay; format: cell-based; details: sw-620, 48 h
[18] = Prodrug conversion in vancomycin-resistant Enterococcus faecalis AUS-RBWH-VRE-01 assessed as hydrolysis product butenolide formation at 30 uM incubated for 3-6 hrs by UHPLC-DAD-ESIMS analysis; format: ADME
[19] = test system: Enterococcus faecalis; experiment: Antibacterial activity against vancomycin-resistant Enterococcus faecalis AUS-RBWH-VRE-01 assessed as reduction in […] growth incubated for 24 hrs by spectrophotometry based broth microdilution assay; format: functional, organism-based; details: Enterococcus faecalis, AUS-RBWH-VRE-01, 24 h; read-out: IC50
[20] = Prodrug conversion in vancomycin-resistant Enterococcus faecalis AUS-RBWH-VRE-01 assessed as hydrolysis product trivirensol B formation at 30 uM incubated for 24 hrs by UHPLC-DAD-ESIMS analysis; format: ADME
[21] = test system: Enterococcus faecalis; experiment: Antibacterial activity against vancomycin-resistant Enterococcus faecalis AUS-RBWH-VRE-01 assessed as colony formation unit at 30 uM incubated for 24 hrs by time kill assay; format: functional

Structure (SMILES) | Activity [1] | Activity [2] | Activity [4] | Drug metabolism [5] | Activity [6] | Activity [7] | Activity [8] | Activity [9] | Activity [10] | Activity [11] | Activity [12] | Activity [13] | Activity [14] | Activity [15] | Activity [17] | pIC50 [19] | fold change (FC) [16] | also measured
CC(C)[C@H]1CC[C@@](O)(COC(=O)/C(=C/[C@@H]2[C@@H](C(C)C)CC[C@@]3(O)COC(=O)[C@@H]23)CO)[C@H]2C(=O)OCC(C(=O)O)=C[C@H]12 | inactive | inactive | inactive | Metabolite_Notdetected | inactive | inactive | inactive | Non-Toxic | inactive | inactive | inactive | inactive | inactive | inactive | Non-Toxic | – | – | Drug metabolism [3]: Metabolite_Detected; Activity [16]: Active
CC(C)[C@H]1CC[C@@](O)(COC(=O)/C(=C/[C@@H]2[C@@H](C(C)C)CC[C@@]3(O)COC(=O)[C@@H]23)CO)[C@@H](C(=O)O)[C@@H]1/C=C(\CO)C(=O)O[C@@]12CC[C@H](C(C)C)[C@@H](/C=C(\CO)C(=O)O)[C@@H]1C(=O)OC2 | inactive | inactive | inactive | Metabolite_Notdetected | inactive | inactive | inactive | Non-Toxic | inactive | inactive | inactive | inactive | inactive | inactive | Non-Toxic | 5.00 | 1000 | Drug metabolism [18]: Metabolite_Detected
CC(C)[C@H]1CC[C@@](O)(COC(=O)C2=C[C@@H]3[C@@H](C(C)C)CC[C@@](O)(COC(=O)/C(=C/[C@@H]4[C@@H](C(C)C)CC[C@@]5(O)COC(=O)[C@@H]45)CO)[C@H]3C(=O)OC2)[C@H]2C(=O)OCC(C(=O)O)=C[C@H]12 | inactive | inactive | inactive | Metabolite_Notdetected | inactive | inactive | inactive | Non-Toxic | inactive | inactive | inactive | inactive | inactive | inactive | Non-Toxic | 5.10 | 10000 | Drug metabolism [20]: Metabolite_Detected
CCCCCCCCCC(=O)N[C@@H](Cc1c[nH]c2ccccc12)C(=O)N[C@H](CC(N)=O)C(=O)N[C@@H](CC(=O)O)C(=O)N[C@@H]1C(=O)NCC(=O)N[C@@H](CCCN)C(=O)N[C@@H](CC(=O)O)C(=O)N[C@H](C)C(=O)N[C@@H](CC(=O)O)C(=O)NCC(=O)N[C@H](CO)C(=O)N[C@@H]([C@H](C)CC(=O)O)C(=O)N[C@@H](CC(=O)c2ccccc2N)C(=O)O[C@@H]1C | – | – | – | – | – | – | – | – | – | – | – | – | – | – | – | – | – | Activity [21]: 50 CFU/ml
